Source: patent US5369111A, “Modulator agent and use thereof” (University of Vermont, priority 1992, dated 1994)
“Also recorded” adds a separate entry of the source. Read-outs that look alike come from different tables or passages of the source.

Experiments:
[1] = Inhibition of population growth of rat colon cancer cell lines RCC-2 and RCC-5; format: cell-based; conditions: rat, rcc-2 and rcc-5 cells; read-out: non-toxic concentration limit
Excerpt: The analogs were examined in a panel of tumor cell lines of both intrinsic and acquired drug resistance, as described in Table 1. The rat colon adenocarcinoma cell lines RCC-2 and RCC-5 (ref. 13) were maintained in Ham's F12 medium supplemented with 5% heat-inactivated, fetal bovine serum (Sterile Systems. Hyclone, Logan, Utah). The two rat colon cancer cell lines differ in their degree of cellular differentiation; whereas the RCC-2 cell line is undifferentiated, the RCC-5 cell line is highly mucinous. The human epidermoid carcinoma cell line KB-3-1 and its MDR variant KB-Vl, selected by VBL treatment (ref. 14; courtesy of M. Gottesman. National Cancer Institute), was maintained in DMEM medium supplemented with 10%, heat-inactivated, fetal bovine serum. […]
Mid-exponential cultures were used for all assays. […] Cytotoxicity was determined by quantitation of population growth after 72 h incubation by electronic particle counter (Coulter Electronics, Hialeah, Fla.). […] Colonies were scored 7-11 days later. […]
FIG. 7 represents the toxicity of analog C-20'-deoxy vincovaline (A) and C-20'-deoxy deethyl vincovaline (B) to population growth of the rat colon adenocarcinoma cell lines. The congener was added at various concentrations to RCC-2 (.cndot.) and RCC-5 (Δ) cell cultures and the population cell number was determined 72 hours later. […]

RCC-2 and RCC-5 cells = test: Modulation of intrinsic drug resistance, RCC-2 and RCC-5; format: cell-based, rat; conditions: at the non-toxic concentration limit of 1-2 μM
Procedure: (§1) Mid-exponential cultures were used for all assays. The RCC-2 and RCC-5 cell lines were seeded into 24-well plates at 2×10^4 cells/well and allowed to attach to the substratum for 16-18 h prior to treatment. The S180 cell lines were seeded into culture tubes at 1×10^5 cells/ml and treated immediately. Cytotoxicity was determined by quantitation of population growth after 72 h incubation by electronic particle counter (Coulter Electronics, Hialeah, Fla.). The human tumor cell lines were used in a clonogenic assay for cytotoxicity. Cells were seeded at 300 cells/dish, incubated overnight and then treated. Colonies were scored 7-11 days later. In all assays of analog modulation of drug sensitivity, the analog was added minutes prior to the addition of cytotoxic drug.

[2] = tested on: S180 cell system (S180, A3, A10); test: Inherent cytotoxicity in the S180 cell system (S180, A3, A10); format: cell-based, murine; conditions: for IC50: Mus musculus; for inherent cytotoxicity / resistance profile (in words): S180, A3, A10
Excerpt: (§2) The analogs were examined in a panel of tumor cell lines of both intrinsic and acquired drug resistance, as described in Table 1. The rat colon adenocarcinoma cell lines RCC-2 and RCC-5 (ref. 13) were maintained in Ham's F12 medium supplemented with 5% heat-inactivated, fetal bovine serum (Sterile Systems. Hyclone, Logan, Utah). The two rat colon cancer cell lines differ in their degree of cellular differentiation; whereas the RCC-2 cell line is undifferentiated, the RCC-5 cell line is highly mucinous. The human epidermoid carcinoma cell line KB-3-1 and its MDR variant KB-Vl, selected by VBL treatment (ref. 14; courtesy of M. Gottesman. National Cancer Institute), was maintained in DMEM medium supplemented with 10%, heat-inactivated, fetal bovine serum. The murine sarcoma cell line […] and its MDR strains A3 and A10 selected by ADM treatment (ref. 15; courtesy of T. Tritton, Dept. Pharmacology, Univ. Vermont). were maintained in DMEM medium supplemented with 10% heat-inactivated, horse serum (Hazelton Biolog. Lenexa, Kans.). Stock cultures were subcultured twice weekly upon reaching the late exponential phase of population growth: population doubling times were 18-24 h. Antibiotics were not used in stock or experimental cultures. The MDR cell strains were grown in drug-free media for 48 h prior to experimental use.
as §1
FIG. 2 represents the toxicity of the vinca alkaloid compounds to population growth. Vindoline, vincovaline or the analog, C-20'-deoxy vincovaline was added, at various concentrations, to S180 (.cndot.), A3 (o), or A10 (Δ) cell cultures. The population cell number was determined 72 hours later.

S180/A10 cells = test: Modulator potency in MDR cells: reversal of acquired resistance, S180/A10; format: cell-based, murine; conditions: A10 cells, 90 fold ADM resistance
Procedure: as §1
(§3) To evaluate the ability of vindoline and the two diastereoisomeric VBL analogs to modulate the MDR phenotype (acquired resistance) of the A3 and A10 cell stains, we determined the concentration of compound required to restore drug sensitivities to parental levels. This was done by exposing the MDR cell line to a concentration range of modulator in the presence VBL, VCR and ADM at the respective IC70s of the parental cell line. The cytotoxicity curves for A3 and A10 cells, shown in FIG. 5, are distinctive among the three vinca alkaloids examined. In each cell line, there was a minimum concentration of modulator that elicited 70% growth inhibition for each drug - i.e. the reversing concentration.
*The minimal concentration of modulator required to restore the drug
sensitivity of S180/MDR cell strains to that of parental S180 cells. Data
are the averages of 2-3 separate experiments, S.D. ≤20%.

[3] = tested on: S180 MDR cell strains A3 and A10; test: Modulation of acquired drug resistance in the S180 MDR cell strains A3 and A10; format: cell-based, murine; conditions: A3 and A10
Procedure: as §1, §3
FIG. 5 represents the modulation of multidrug resistance in the MDR cell strains by the vinca alkaloids. Vindoline (A), vincovaline (B), or the analog C-20'-deoxy vincovaline (C) was added, at various concentrations, to A3 (closed symbols) or A10 (opened symbols) cell cultures containing the parental IC70 of each drug: 2.0×10^-7 M. ADM (circles: 1.5×10^-8 M VBL (triangles); and 4.5×10^-8 M; VCR (squares). Population growth was determined 72 hours later.
FIG. 6 represents the relationship between cellular drug resistance level and the minimal modulator concentration required for complete reversal of drug resistance. The drugs examined were ADM (o), VBL (Δ), and VCR (.quadrature.). The amount (concentration) of modulator, necessary to reverse each level of drug resistance contained in the A3 and A10 cell lines, was determined from data such as those of FIG. 5. The values presented were averaged from duplicate samples of two separate experiments, S.D.<15% of the mean. The arrows denote the non-toxic concentration limit for the modulator; in the case of Vincovaline this value is dependent on the MDR cell strain, 2×10^-5 M, A3; 5×10^-5 M. A10.
FIG. 11 represents the modulation of multidrug resistance in the S180 MDR cell strains A3 and A10. The cellular drug resistance level is plotted against the minimal concentration of C-20'-deoxy deethyl vincovaline required for the complete reversal of drug resistance to ADM (o), VBL (Δ), and VCR (.quadrature.). In the case of high level ADM resistance […], the sensitivity of the cells was restored to 80% of the parental value. The arrow denotes the non-toxic concentration limit of the analog.

S180 cells, parental = test: Modulation of intrinsic drug resistance, parental S180; format: cell-based, murine; conditions: for effect on VBL toxicity in parental S180 cells (in words): 50-fold concentration range; for modulation of sensitivity of parental S180 cells to VBL, VCR and ADM (in words): all three drugs
Procedure: as §1
The ability of the compounds to modulate drug sensitivity in parental cells was studied over a range of concentrations of each compound, from 10^-6 M to the non-toxic (IC10-20) or solubility limit. […] From such experiments, we determined a sensitivity index derived from the IC50 of the drug without modulator treatment divided by the drug IC50 at each concentration of modulator.
When the sensitivity index for each drug, VBL, VCR and ADM is plotted versus the modulator concentration (FIG. 4), we can compare the relative potencies of the compounds as modulators of drug toxicity to the parental S180 cells.
*calculated as the IC50 of the drug alone divided by the IC50 o
the [drug modulator] combination. Data are presented from tretments with
FIG. 4 represents the potency of the vinca alkaloid compounds as modulators of drug sensitivity in S180 cells. The enhancement of sensitivity was calculated as the sensitivity index=IC50 of the drug alone divided by the IC50 of the drug+modulator. The IC50s for ADM (o) VBL (Δ), or VCR (.quadrature.) were determined over a concentration range of each modulator from data such as those depicted in FIG. 3. The values presented were averaged from duplicate samples of two separate experiments, S.D. <15% of the mean.

[4] = Inhibition of population growth (cytotoxicity), MDR strain S180/A10; format: cell-based, mouse; conditions: mouse, s180/a10 cells; read-out: non-toxic concentration limit for the modulator
Excerpt: as §2, §1

[5] = Inhibition of population growth (cytotoxicity), MDR strain S180/A3; format: cell-based, mouse; conditions: mouse, s180/a3 cells; read-out: non-toxic concentration limit for the modulator
Excerpt: as §2, §1

[6] = listed as C-20'-deoxy Vincovaline

Compound	MNTC at 72 h [1]	sensitization to VBL, VCR and ADM (RCC-2 and RCC-5 cells)	IC50 ([2]; S-180, read-out: IC50 (inhibition of cell growth))	inherent cytotoxicity / resistance profile (in words) [2]	inherent cytotoxicity / resistance profile (in words) ([2]; 16', 20'-epi-VBL)	non-toxic concentration limit (in words) ([2]; S180 cell system)	reversal of high level ADM resistance (in words) (S180/A10 cells)	modulation of cellular resistance to VBL, VCR and ADM in MDR cell strains (in words) [3]	modulation of cellular resistance to VBL, VCR and ADM in MDR cell strains (in words) ([3]; 16', 20'-epi-VBL)	effect on VBL toxicity in parental S180 cells (in words) (S180 cells, parental)	effect on VBL toxicity in parental S180 cells (in words) (S180 cells, parental; [6])	modulation of VCR and ADM cytotoxicity in parental S180 cells (in words) (S180 cells, parental)	modulation of VCR and ADM cytotoxicity in parental S180 cells (in words) (S180 cells, parental; [6])	modulation of VCR and ADM cytotoxicity in parental S180 cells (in words) (S180 cells, parental; listed as C-29'-deoxy vincovaline)	MNTC at 72 h [4]	MNTC at 72 h [5]	IC50 ([2]; S-180, S180 parental and MDR cell lines, read-out: IC50 (inhibition of cell growth))	modulation of cellular resistance to VBL, VCR and ADM in MDR cell strains (in words) ([3]; listed as C-14', 16', 20'-epi-VBL)	modulation of sensitivity of parental S180 cells to VBL, VCR and ADM (in words) (S180 cells, parental)	modulation of sensitivity of parental S180 cells to VBL, VCR and ADM (in words) (S180 cells, parental; listed as Vincovaline)
CC[C@H]1C[C@H]2CN(CCc3c([nH]c4ccccc34)[C@](C(=O)OC)(c3cc4c(cc3OC)N(C)[C@H]3[C@@](O)(C(=O)OC)[C@H](OC(C)=O)[C@]5(CC)C=CCN6CC[C@]43[C@@H]65)C2)C1 [C-20'-deoxy vincovaline, C-20'-deoxy C-14', 16', 20'-epi-VBL]	1000 to 2000 nM	2- to 4 fold	> 10 µM	very weak cytotoxic agent	cross-resistance	beyond the limits of solubility	reversing completely the high level ADM resistance (90 fold)	reverses MDR in the A3 and A10 cell strains, without evidence of drug-specificity	modulators of cellular resistance to VBL, VCR and ADM	no effect on cell sensitivity to VBL	no effect on VBL toxicity	progressive sensitization of the cells to the drug with increasing analog concentrations; also recorded: similar, concentration-dependent enhancement of VCR and ADM cytotoxicity; also recorded: sensitizes S180 cells to ADM and VCR but not to VBL	similar, concentration-dependent enhancement	most potent modulator of intrinsic resistance to ADM and VCR						
CC[C@@]1(O)C[C@H]2CN(CCc3c([nH]c4ccccc34)[C@](C(=O)OC)(c3cc4c(cc3OC)N(C)[C@H]3[C@@](O)(C(=O)OC)[C@H](OC(C)=O)[C@]5(CC)C=CCN6CC[C@]43[C@@H]65)C2)C1 [vincovaline, C-14', 16', 20'-epi-VBL]				cross-resistance			limited in this activity by their own cytoxicity in the MDR cell lines	significant activity with MDR cells is coincident with its non-toxic concentration limit in each cell line							50 µM	20 µM	> 10 µM	modulators of cellular resistance to VBL, VCR and ADM	sensitized the parental S180 cells to all three drugs	weak modulator of drug sensitivity; also recorded: poor modulator of drug sensitivity in the parental cell line
